{"source": "patent US10646538B2", "about": "“Self-assembling tripeptides” (ENDO Biologics, Inc., priority 2014, dated 2020)", "assay_type_in_all_cases": "physicochemical", "key": {"[1]": {"assay": "Aggregation behaviour of tripeptides dissolved in water at pH 7", "conditions": "for solubility: water / D2O; for aggregation behavior on dissolving in water: water at pH 7, 30 mmol/L", "protocol": "Tripeptides were dissolved in water by sonication and vortexing, followed by bringing the pH to 7.2±0.1 by dropwise addition of 0.25 M NaOH solution to a final concentration of 30 mmol/L. These were diluted to 10 mmol/L for DLS and NMR experiments. Note that the KYF gel could also be prepared by direct dissolution into a 0.1 M phosphate buffer at pH 7. Characterization of the resulting samples took places at least 24 hours after sample preparation. Samples for FTIR and NMR analysis were prepared using D2O (99.9% D) and NaOD solution instead of H2O and NaOH.\nThe bottom half of Table 2 contains the tripeptides that were selected for synthesis and experimental characterization. The selection was made to include a wide range of AP and APH scores, including PFF (#1 from AP score) and KFD (#1 from APH score) and peptides that adhere to one or more of our design rules formulated above, such as KYF. […] These peptides were dissolved in water at pH 7 and their aggregation behavior was studied in order to test the predictive value of our method."}, "[2]": {"assay": "Diffusion Ordered NMR spectroscopy (DOSY)", "conditions": "10 mM in D2O, pH 7, 298 K", "text": "DOSY spectra were acquired at 600 MHz using a Bruker Avance 600 spectrometer using the Bruker microprogram dstebpgp3sat at 298 K. The eddy current delay (Te) was set to 5 ms. The diffusion time was adjusted to 100 ms. […] The pulse gradient was increased from 2 to 95% of the maximum gradient strength using a linear ramp 16 k data points in the F2 dimension (20 ppm) and 16 data points in the F1 dimension were collected. […] This method is able to determine the diffusion coefficient D of supramolecular aggregates and therefore their relative size, as described by the Stokes-Einstein equation.^43,44 Diffusion constants for all the studied tripeptides can be found in Table 2. […] For the remaining peptides, DOSY results are in good agreement with the predicted aggregation propensity at 50 ns."}, "[3]": {"assay": "Dynamic light scattering (DLS)", "conditions": "10 mM at pH 7, 25° C.", "protocol": "The dynamic light scattering (DLS) measurements were carried out on 10 mmol/L peptide solutions (i.e. below the critical gelation concentration) by using a 3 DDLS spectrophotometer (LS instruments, Fribourg, Switzerland) using vertically polarized He—Ne laser light (25 mW with wavelength of 632.8 nm) with an avalanche photodiode detector at an angle of 90° at 25° C. Intensity autocorrelation functions were recorded and analyzed by means of the cumulant method in order to determine the intensity weighted diffusion coefficients D and the average hydrodynamic radius Rh by using the Stokes-Einstein equation, Rh=kBT/6πηD, where kB is the Boltzmann constant, T is the absolute temperature and η is the solvent viscosity at the given temperature.\nTo further confirm the presence (and size) of the peptide aggregates formed, dynamic light scattering (DLS) experiments were performed on the KYF gel, PFF suspension and KFD and GGG solutions."}, "[4]": {"assay": "FTIR spectroscopy, amide I region", "conditions": "30 mM in D2O at pH 7", "protocol": "Samples were contained in a standard IR transmission cell (Harrick Scientific) between two 2 mm CaF2 windows, separated by a polytetrafluoroethylene (PFTE) spacer of 50 μm thickness. Spectra were recorded on a Bruker Vertex 70 spectrometer by averaging 25 scans at a spectral resolution of 1 cm^−1. Spectra were corrected for absorption from a phosphate buffer blank sample and absorptions from trifluoroacetic acid (TFA).\nThe secondary structure of the peptides can be probed by infrared (IR) spectroscopy.^45,46 When aggregation takes place via intermolecular hydrogen bonding of the amide groups, the 1650-1655 cm^−1 absorption observed for free peptides in solution typically narrows and shifts to lower frequency, while the 1595 cm^−1 peak, assigned to carboxylate groups, broadens or decreases in intensity due to protonation or salt bridge formation. […] Note that small absorption maxima in the 1670-1685 cm^−1 region are assigned to residual trifluoro-acetic acid absorption and the 1570-1580 cm^−1 band for KFD is assigned to the aspartic acid side chain carboxylate group.\nFor KYF, a dramatic change in the amide region was noticed upon gelation with intense IR absorption peaks at 1621 and 1649 cm^−1 for the amide groups and 1568 cm^−1 for salt-bridged carboxylate groups."}, "[5]": {"assay": "TEM of tripeptide samples", "conditions": "samples at pH 7", "protocol": "Carbon-coated copper grids (200 mesh) were glow discharged in air for 30 s. The support film was touched onto the gel surface for 3 s and blotted down using filter paper. Negative stain ([…], 1% aqueous methylamine vanadate (Nanovan; Nanoprobes) was applied and the mixture was blotted again using filter paper to remove excess. The dried specimens were then imaged using a LEO 912 energy filtering transmission electron microscope operating at 120 kV fitted with 14 bit/2 K Proscan CCD camera"}, "[6]": {"assay": "pH dependence of the gelation of KYF", "protocol": "We investigated the effects of pH on the gelation of the tripeptide KYF in aqueous solvent. […] The alteration of the pH will affect the protonation state of the ionisable groups on KYF i.e., N and C termini and the lysine side groups.\npH measurements were carried out ranging from pH 5 to 8. At each pH measurement an image was taken to show the gelation behaviour. The pH was altered using 0.5M NaOH which is added drop wise into the vial, vortexed to ensure a complete mix then the pH is measured until a stable value is obtained.\nInitially, the peptide sample is dissolve in water and the pH is recorded. At this point the pH is below the pKa of the C-terminus therefore the terminal acid is protonated and gelation should not occur, which is what was observed."}}, "note": "Entries after “also recorded” stand apart in the source; their conditions may differ. Peptide text beside a SMILES is read from it.", "data": [{"compound": "N[C@@H](Cc1ccccc1)C(=O)N[C@@H](Cc1c[nH]cn1)C(=O)N[C@@H](Cc1ccccc1)C(=O)O", "note": "[FHF] (H-Phe-His-Phe-OH)", "values": [{"measurement": "solubility", "setting": "[1]", "value": "poor solubility"}, {"measurement": "aggregation behavior on dissolving in water", "setting": "[1]", "value": "suspensions"}]}, {"compound": "CC[C@H](C)[C@H](NC(=O)[C@H](Cc1ccc(O)cc1)NC(=O)[C@@H](N)Cc1ccccc1)C(=O)O", "note": "[FYI] (H-Phe-Tyr-Ile-OH)", "values": [{"measurement": "solubility", "setting": "[1]", "value": "poor solubility"}, {"measurement": "aggregation behavior on dissolving in water", "setting": "[1]", "value": "precipitated"}]}, {"compound": "NCC(=O)NCC(=O)NCC(=O)O", "note": "[GGG, reference compound] (H-Gly-Gly-Gly-OH)", "values": [{"measurement": "diffusion constant (DOSY)", "setting": "[2]", "value": "highest diffusion constant"}, {"measurement": "average hydrodynamic radius / relative size of the aggregates (DLS)", "setting": "[3]", "value": 0.10, "unit": "μm"}]}, {"compound": "CC[C@H](C)[C@H](N)C(=O)N[C@@H](Cc1ccc(O)cc1)C(=O)N[C@@H](Cc1ccccc1)C(=O)O", "note": "[IYF] (H-Ile-Tyr-Phe-OH)", "values": [{"measurement": "solubility", "setting": "[1]", "value": "poor solubility"}, {"measurement": "aggregation behavior on dissolving in water", "setting": "[1]", "value": "precipitated"}]}, {"compound": "NCCCC[C@H](N)C(=O)N[C@@H](Cc1ccccc1)C(=O)N[C@@H](CC(=O)O)C(=O)O", "note": "[KFD] (H-Lys-Phe-Asp-OH)", "values": [{"measurement": "secondary structure from amide I IR absorption", "setting": "[4]", "value": "no extended secondary structure formation"}, {"measurement": "diffusion constant (DOSY)", "setting": "[2]", "value": "intermediate diffusion rate"}, {"measurement": "nanostructure seen by TEM", "setting": "[5]", "value": "strongly curved fibers together with more amorphous regions"}, {"measurement": "average hydrodynamic radius / relative size of the aggregates (DLS)", "setting": "[3]", "value": 0.13, "unit": "μm"}]}, {"compound": "NCCCC[C@H](N)C(=O)N[C@@H](Cc1ccc(O)cc1)C(=O)N[C@@H](Cc1ccccc1)C(=O)O", "note": "[KYF] (H-Lys-Tyr-Phe-OH)", "values": [{"measurement": "aggregation behavior on dissolving in water", "setting": "[1]", "value": "translucent self-supporting hydrogel"}, {"measurement": "pH of critical gelation", "setting": "[6]; aqueous, pH raised with 0.5M NaOH", "value": "6.9-7.05"}, {"measurement": "gelation behaviour", "setting": "[6]; pH 2.21 to 6.7, aqueous", "value": "remained as a clear solution"}, {"measurement": "gelation behaviour", "setting": "[6]; pH 6.9, aqueous", "value": "weak gel"}, {"measurement": "gelation behaviour", "setting": "[6]; pH 7.05, aqueous", "value": "self-supporting hydrogel"}, {"measurement": "gelation behaviour", "setting": "[6]; pH 7.05 until 7.98, aqueous", "value": "stronger gels"}, {"measurement": "secondary structure from amide I IR absorption", "setting": "[4]", "value": "well-ordered peptide nanostructure"}, {"measurement": "diffusion constant (DOSY)", "setting": "[2]", "value": "lowest diffusion constant"}, {"measurement": "nanostructure seen by TEM", "setting": "[5]", "value": "entangled fibrous network"}, {"measurement": "average hydrodynamic radius / relative size of the aggregates (DLS)", "setting": "[3]", "value": 0.26, "unit": "μm"}]}, {"compound": "O=C(O)[C@H](Cc1ccccc1)NC(=O)[C@H](Cc1ccccc1)NC(=O)[C@@H]1CCCN1", "note": "[PFF] (H-Pro-Phe-Phe-OH)", "values": [{"measurement": "solubility", "setting": "[1]", "value": "poor solubility; also recorded: low solubility"}, {"measurement": "aggregation behavior on dissolving in water", "setting": "[1]", "value": "suspensions"}, {"measurement": "secondary structure from amide I IR absorption", "setting": "[4]", "value": "β-sheet like arrangement of the amide groups"}, {"measurement": "nanostructure seen by TEM", "setting": "[5]", "value": "short crystalline nanostructures with a large aspect ratio"}, {"measurement": "average hydrodynamic radius / relative size of the aggregates (DLS)", "setting": "[3]", "value": 0.70, "unit": "μm"}]}, {"compound": "N=C(N)NCCC[C@H](N)C(=O)N[C@@H](Cc1ccc(O)cc1)C(=O)N[C@@H](Cc1ccccc1)C(=O)O", "note": "[RYF] (H-Arg-Tyr-Phe-OH)", "values": [{"measurement": "aggregation behavior on dissolving in water", "setting": "[1]", "value": "did not give a gel"}]}, {"compound": "N[C@@H](CO)C(=O)N[C@@H](Cc1ccc(O)cc1)C(=O)N[C@@H](Cc1ccccc1)C(=O)O", "note": "[SYF] (H-Ser-Tyr-Phe-OH)", "values": [{"measurement": "solubility", "setting": "[1]", "value": "insoluble in water"}]}]}
